According to patent publication US20070172957A1, “Methods of identifying anti-inflammatory macrolides” (TAISHO PHARMACEUTICAL CO., LTD., priority 2004, published 2007):

Test system: A549 cells
Assay: A549 microarray comparing macrolides with arachidonic acid pathway inhibitors, with IL-1β stimulation (Appendix C, Tables 6-9), and correlation analysis
Format: cell-based
Conditions: for Total # Differential Genes (95% confidence): A549, IL1 vs IL1 + drug, threshold 1.3, macrolides 50 μM (FMA 10 μM), triacsin C 15 μM, indomethacin and dexamethasone 100 nM; for FADS1 expression: microarray
Description: One inhibitor, triacsin C, acts on AA biosynthesis by inhibiting arachidonyl CoA synthetases, blocking the incorporation of free AA into phospholipids. Triacsin C is reasonably specific for AA compared to other fatty acids. However, triacsin C structurally resembles AA so it also may interfere with other steps in the AA pathway. Indomethacin is an inhibitor of COX1 and COX2 enzyme activities and therefore specifically blocks metabolism of AA into prostaglandins. […] It inhibits transcription of PLA2, and transcriptionally and post-transcriptionally regulates COX1 and COX2 activities. Dexamethasone has additional effects unrelated to AA through binding with the glucocorticoid receptor to glucocortcoid response elements.
A549 cells were pre-incubated overnight (17 hours) with macrolides (10 μM FMA-9045, 50 μM clarithromycin, 50 μM roxithromycin, 50 μM josamycin) and 15 μM triacsin C, and pre-incubated 2 hours with 100 nM indomethacin and 100 nM dexamethasone. All cells then were stimulated for 4 hours with IL-1β, because the activation of PLA2 and downstream signaling events generally requires an inflammatory stimulus. The various treatment conditions are shown below in Table 4. Following macrolide and inhibitor pre-treatment and IL-1 stimulation, the cells were lysed, total RNA was collected, and the poly-A+ mRNA fraction was purified. The resulting microarray data (Appendix C) were analyzed using the methods described in the Examples above.
The tables in Appendix C represent the effects of the arachidonic acid pathway inhibitors (“AA pathway inhibitors”) and the effects of the macrolides (“IL1+macrolide effects”). […] In both tables in Appendix C, the genes that meet this criterion (≧1.3 min fold change) are indicated in bold.
Quantitative analysis was done to determine how well the responses to the different AA pathway inhibitors correlated. The correlation values were assigned a p-value to provide statistical confidence to the correlation value. Correlation between experiments, across all spots showing good detection, was assessed by cosine vector angle to generate the data shown in Tables 7-9. A correlation coefficient close to one indicates strong correlation, whereas a value near zero indicates no correlation. P-values for each correlation coefficient were estimated based on a Fisher permutation test. In this test, each spot's expression ratios were randomly re-ordered across experiments and the degree of correlation between experiments was then reassessed. This was done repeatedly.

[1] = A549 cells, +IL1b +/- inhibitor

In the case of `COc1ccc2c(c1)c(CC(=O)O)c(C)n2C(=O)c1ccc(Cl)cc1` [indomethacin], the “Number of differentially expressed genes also differential in response to triacsin C” value (A549 + IL-1β, of the genes regulated by the labelled drug) is reported as 36, the “Total # Differential Genes (95% confidence)” value is reported as 37 and the “min fold change, SpotID 46796 STC1 (stanniocalcin 1)” value [1] is reported as 1.34. The “min fold change, SpotID 46950 SERPINA3 (serine (or cysteine) proteinase inhibitor, clade A, member 3)” value [1] was 1.28, the “min fold change, SpotID 46985 RIPK2 (RIP2, RICK; receptor-interacting serine-threonine kinase 2)” value [1] was 1.85 and the “min fold change, SpotID 47155 TNFAIP6 (tumor necrosis factor, alpha-induced protein 6)” value [1] was 1.17. For the same compound, the “min fold change, SpotID 47166 SERPINA6 (serine (or cysteine) proteinase inhibitor, clade A, member 6)” value [1] was 1.05, the “min fold change, SpotID 47193 STAT3 (signal transducer and activator of transcription 3)” value [1] was 1.25 and the “min fold change, SpotID 47332 SERPINB3 (serine (or cysteine) proteinase inhibitor, clade B (ovalbumin), member 3)” value [1] was 1.25. The “min fold change, SpotID 47444 TKT (transketolase (Wernicke-Korsakoff syndrome))” value [1] was 1.00, the “min fold change, SpotID 47569 STAT3 (signal transducer and activator of transcription 3)” value [1] was 1.69 and the “min fold change, SpotID 47697 TNFRSF6B (DcR3; tumor necrosis factor receptor superfamily, member 6b, decoy)” value [1] was 1.52. The “min fold change, SpotID 47698 PTPRJ (protein tyrosine phosphatase, receptor type, J)” value [1] was 1.31, the “min fold change, SpotID 47987 THBS1 (thrombospondin 1)” value [1] was 1.32 and the “min fold change, SpotID 48050 RPS6KA2 (ribosomal protein S6 kinase, 90 kD, polypeptide 2)” value [1] was 1.00. For the same compound, the “min fold change, SpotID 48234 PTPRZ1 (PTP zeta; protein tyrosine phosphatase, receptor-type, Z polypeptide 1)” value [1] was 1.48, the “min fold change, SpotID 48239 TLN1 (talin 1)” value [1] was 1.51 and the “min fold change, SpotID 48288 TRAF5 (TNF receptor-associated factor 5)” value [1] was 1.40. For the same compound, the “min fold change, SpotID 48359 RIPK1 (receptor (TNFRSF)-interacting serine-threonine kinase 1)” value [1] was 1.00, the “min fold change, SpotID 48392 RIPK1 (receptor (TNFRSF)-interacting serine-threonine kinase 1)” value [1] was 1.00 and the “min fold change, SpotID 48395 TNFRSF7 (CD27; tumor necrosis factor receptor superfamily, member 7)” value [1] was 1.55. For the same compound, the “min fold change, SpotID 48485 UCP1 (uncoupling protein 1 (mitochondrial, proton carrier))” value [1] was 1.32, the “min fold change, SpotID 48500 RPL13A (ribosomal protein L13a)” value [1] was 1.06 and the “min fold change, SpotID 48594 RPS6KA2 (ribosomal protein S6 kinase, 90 kD, polypeptide 2)” value [1] was 1.03. For the same compound, the “min fold change, SpotID 48603 TEAD4 (TEA domain family member 4)” value [1] was 1.72, the “min fold change, SpotID 49330 TNFRSF7 (CD27; tumor necrosis factor receptor superfamily, member 7)” value [1] was 1.44 and the “min fold change, SpotID 49899 WWOX (WW domain containing oxidoreductase)” value [1] was 1.00. For the same compound, the “min fold change, SpotID 49901 TROAP (trophinin associated protein (tastin))” value [1] was 1.01, the “min fold change, SpotID 50379 TNFRSF6 (FAS; tumor necrosis factor receptor superfamily, member 6)” value [1] was 1.38 and the “min fold change, SpotID 50428 RPLP0 (ribosomal protein, large, P0)” value [1] was 1.00. For the same compound, the “min fold change, SpotID 50491 TNFRSF6B (DcR3; tumor necrosis factor receptor superfamily, member 6b, decoy)” value [1] was 1.17, the “wtd means, SpotID 46796 STC1 (stanniocalcin 1)” value [1] was 1.47 and the “wtd means, SpotID 46950 SERPINA3 (serine (or cysteine) proteinase inhibitor, clade A, member 3)” value [1] was 1.41. The “wtd means, SpotID 46985 RIPK2 (RIP2, RICK; receptor-interacting serine-threonine kinase 2)” value [1] was 2.23, the “wtd means, SpotID 47155 TNFAIP6 (tumor necrosis factor, alpha-induced protein 6)” value [1] was 1.23 and the “wtd means, SpotID 47166 SERPINA6 (serine (or cysteine) proteinase inhibitor, clade A, member 6)” value [1] was 1.66. The “wtd means, SpotID 47193 STAT3 (signal transducer and activator of transcription 3)” value [1] was 1.64, the “wtd means, SpotID 47332 SERPINB3 (serine (or cysteine) proteinase inhibitor, clade B (ovalbumin), member 3)” value [1] was 1.33 and the “wtd means, SpotID 47444 TKT (transketolase (Wernicke-Korsakoff syndrome))” value [1] was 0.82. For the same compound, the “wtd means, SpotID 47569 STAT3 (signal transducer and activator of transcription 3)” value [1] was 2.00, the “wtd means, SpotID 47697 TNFRSF6B (DcR3; tumor necrosis factor receptor superfamily, member 6b, decoy)” value [1] was 1.84 and the “wtd means, SpotID 47698 PTPRJ (protein tyrosine phosphatase, receptor type, J)” value [1] was 1.38. The “wtd means, SpotID 47987 THBS1 (thrombospondin 1)” value [1] was 0.68, the “wtd means, SpotID 48234 PTPRZ1 (PTP zeta; protein tyrosine phosphatase, receptor-type, Z polypeptide 1)” value [1] was 1.77 and the “wtd means, SpotID 48239 TLN1 (talin 1)” value [1] was 1.57. The “wtd means, SpotID 48288 TRAF5 (TNF receptor-associated factor 5)” value [1] was 1.96, the “wtd means, SpotID 48359 RIPK1 (receptor (TNFRSF)-interacting serine-threonine kinase 1)” value [1] was 1.34 and the “wtd means, SpotID 48392 RIPK1 (receptor (TNFRSF)-interacting serine-threonine kinase 1)” value [1] was 1.35. The “wtd means, SpotID 48395 TNFRSF7 (CD27; tumor necrosis factor receptor superfamily, member 7)” value [1] was 1.76, the “wtd means, SpotID 48485 UCP1 (uncoupling protein 1 (mitochondrial, proton carrier))” value [1] was 1.70 and the “wtd means, SpotID 48500 RPL13A (ribosomal protein L13a)” value [1] was 1.23. The “wtd means, SpotID 48603 TEAD4 (TEA domain family member 4)” value [1] was 2.19, the “wtd means, SpotID 49330 TNFRSF7 (CD27; tumor necrosis factor receptor superfamily, member 7)” value [1] was 1.90 and the “wtd means, SpotID 49899 WWOX (WW domain containing oxidoreductase)” value [1] was 1.07. The “wtd means, SpotID 49901 TROAP (trophinin associated protein (tastin))” value [1] was 0.93, the “wtd means, SpotID 50379 TNFRSF6 (FAS; tumor necrosis factor receptor superfamily, member 6)” value [1] was 1.57 and the “wtd means, SpotID 50428 RPLP0 (ribosomal protein, large, P0)” value [1] was 0.77. For the same compound, the “wtd means, SpotID 50491 TNFRSF6B (DcR3; tumor necrosis factor receptor superfamily, member 6b, decoy)” value [1] was 1.60 and the FADS1 expression (A549 cells) was “not”.

`CCC/C=C/C/C=C/C=C/C=N/NN=O` [triacsin C] was tested, and the “Total # Differential Genes (95% confidence)” value was 228 and the FADS1 expression (A549 cells) was “induced”.
